Legend:
Format in all cases: biochemical
BIexoHep = target: T1, BIexoHep (Bacteroides intestinalis, UniProt B3C5J6); experiment: tetrasaccharide digestion, 2-AB labelling, anion-exchange HPLC; conditions: exolytic beta-elimination; 5 pmol substrate
T1 construct: gene BACINT_00178; pET-30a(+), His-purified from E. coli BL21(DE3); crystal residues 24-864, monomer, two Ca2+
T1 sequence (B3C5J6 24-868): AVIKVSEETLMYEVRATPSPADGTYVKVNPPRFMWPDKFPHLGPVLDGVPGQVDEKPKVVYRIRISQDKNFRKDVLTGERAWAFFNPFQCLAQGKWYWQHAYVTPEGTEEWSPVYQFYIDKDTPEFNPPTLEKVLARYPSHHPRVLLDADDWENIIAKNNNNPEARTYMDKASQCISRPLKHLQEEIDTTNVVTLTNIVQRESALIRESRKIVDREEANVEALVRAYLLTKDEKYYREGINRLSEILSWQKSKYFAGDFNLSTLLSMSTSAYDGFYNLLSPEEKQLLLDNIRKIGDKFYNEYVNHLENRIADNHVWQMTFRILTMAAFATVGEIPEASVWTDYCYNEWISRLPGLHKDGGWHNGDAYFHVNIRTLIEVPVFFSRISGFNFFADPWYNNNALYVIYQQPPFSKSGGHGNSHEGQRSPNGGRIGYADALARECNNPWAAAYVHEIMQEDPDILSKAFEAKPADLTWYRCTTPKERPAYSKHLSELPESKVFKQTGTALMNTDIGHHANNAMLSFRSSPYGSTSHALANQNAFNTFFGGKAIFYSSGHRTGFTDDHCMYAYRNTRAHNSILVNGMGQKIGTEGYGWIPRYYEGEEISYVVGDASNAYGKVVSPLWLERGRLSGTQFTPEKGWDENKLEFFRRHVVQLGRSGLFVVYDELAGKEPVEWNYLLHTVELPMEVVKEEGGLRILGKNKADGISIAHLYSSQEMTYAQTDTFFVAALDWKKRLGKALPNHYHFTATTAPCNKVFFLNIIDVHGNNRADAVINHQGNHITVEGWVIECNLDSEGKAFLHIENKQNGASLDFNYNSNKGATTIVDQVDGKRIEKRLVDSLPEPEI

BFexoHep = target: T2, BFexoHep (Bacteroides finegoldii, UniProt C9L025); experiment: digestion, anion-exchange HPLC at […] nm; conditions: […] μg fondaparinux; cleaved to ΔUA2S([…]-4)GlcNS6S(OCH3) only
T2 construct: synthetic gene, expressed in E. coli BL21(DE3) and purified as BIexoHep
T2 sequence (C9L025 24-874): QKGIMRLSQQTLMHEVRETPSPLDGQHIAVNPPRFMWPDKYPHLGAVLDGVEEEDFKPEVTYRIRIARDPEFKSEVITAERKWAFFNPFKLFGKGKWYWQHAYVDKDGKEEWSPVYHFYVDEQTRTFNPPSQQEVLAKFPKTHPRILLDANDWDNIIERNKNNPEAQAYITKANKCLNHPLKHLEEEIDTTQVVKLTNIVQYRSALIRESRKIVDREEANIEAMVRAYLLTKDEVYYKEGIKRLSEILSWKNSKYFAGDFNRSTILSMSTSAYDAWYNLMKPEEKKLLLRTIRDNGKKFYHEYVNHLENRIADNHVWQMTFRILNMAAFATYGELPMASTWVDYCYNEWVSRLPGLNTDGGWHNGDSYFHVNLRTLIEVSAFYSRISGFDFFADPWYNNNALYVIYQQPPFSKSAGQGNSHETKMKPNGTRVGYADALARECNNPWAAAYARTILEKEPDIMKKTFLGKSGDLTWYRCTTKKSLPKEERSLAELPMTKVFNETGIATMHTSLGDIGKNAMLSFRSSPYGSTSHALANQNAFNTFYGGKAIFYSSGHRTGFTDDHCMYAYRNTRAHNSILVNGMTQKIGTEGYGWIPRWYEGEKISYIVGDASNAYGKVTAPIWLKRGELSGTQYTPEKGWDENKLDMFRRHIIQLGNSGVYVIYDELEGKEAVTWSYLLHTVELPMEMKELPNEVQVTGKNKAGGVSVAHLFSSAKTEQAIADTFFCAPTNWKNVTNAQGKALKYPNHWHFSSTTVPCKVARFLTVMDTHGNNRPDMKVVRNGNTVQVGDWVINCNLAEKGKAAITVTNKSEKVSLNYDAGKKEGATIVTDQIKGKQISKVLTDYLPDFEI

BTexoHep = target: T3, BTexoHep (Bacteroides thetaiotaomicron, UniProt Q89YS9); experiment: digestion, anion-exchange HPLC at […] nm; conditions: 5 μg fondaparinux; cleaved to ΔUA2S(1-4)GlcNS6S(OCH3) only
T3 construct: gene BT_4652; synthetic gene, expressed in E. coli BL21(DE3) and purified as BIexoHep
T3 sequence (Q89YS9 22-872): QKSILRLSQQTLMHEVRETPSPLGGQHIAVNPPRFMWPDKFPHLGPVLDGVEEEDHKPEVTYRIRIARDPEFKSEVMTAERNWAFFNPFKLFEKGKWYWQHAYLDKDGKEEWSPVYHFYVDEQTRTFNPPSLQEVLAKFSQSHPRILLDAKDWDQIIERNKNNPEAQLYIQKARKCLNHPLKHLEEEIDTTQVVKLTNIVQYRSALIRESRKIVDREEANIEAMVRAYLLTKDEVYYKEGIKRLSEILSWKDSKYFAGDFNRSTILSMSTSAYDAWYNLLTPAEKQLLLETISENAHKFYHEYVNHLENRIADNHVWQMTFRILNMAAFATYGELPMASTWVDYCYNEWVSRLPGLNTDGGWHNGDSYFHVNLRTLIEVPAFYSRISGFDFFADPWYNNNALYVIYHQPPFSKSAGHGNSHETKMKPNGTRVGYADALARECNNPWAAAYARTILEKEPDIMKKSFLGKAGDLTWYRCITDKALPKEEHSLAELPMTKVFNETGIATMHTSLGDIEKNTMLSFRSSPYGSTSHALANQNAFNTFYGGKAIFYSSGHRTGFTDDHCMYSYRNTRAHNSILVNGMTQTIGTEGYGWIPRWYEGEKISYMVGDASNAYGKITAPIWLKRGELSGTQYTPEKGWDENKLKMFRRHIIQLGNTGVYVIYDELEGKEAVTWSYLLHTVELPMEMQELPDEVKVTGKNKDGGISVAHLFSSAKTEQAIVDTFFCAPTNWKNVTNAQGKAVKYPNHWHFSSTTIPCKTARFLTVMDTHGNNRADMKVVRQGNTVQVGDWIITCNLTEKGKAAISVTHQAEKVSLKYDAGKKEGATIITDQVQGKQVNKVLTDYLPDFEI

BCexoHep = target: T4, BCexoHep (Bacteroides cellulosilyticus, UniProt A0A0P0GDH6); experiment: digestion, anion-exchange HPLC at […] nm; conditions: 5 μg fondaparinux; cleaved to ΔUA2S(1-4)GlcNS6S(OCH3) only
T4 construct: gene hepB; synthetic gene, expressed in E. coli BL21(DE3) and purified as BIexoHep
T4 sequence (A0A0P0GDH6 18-868): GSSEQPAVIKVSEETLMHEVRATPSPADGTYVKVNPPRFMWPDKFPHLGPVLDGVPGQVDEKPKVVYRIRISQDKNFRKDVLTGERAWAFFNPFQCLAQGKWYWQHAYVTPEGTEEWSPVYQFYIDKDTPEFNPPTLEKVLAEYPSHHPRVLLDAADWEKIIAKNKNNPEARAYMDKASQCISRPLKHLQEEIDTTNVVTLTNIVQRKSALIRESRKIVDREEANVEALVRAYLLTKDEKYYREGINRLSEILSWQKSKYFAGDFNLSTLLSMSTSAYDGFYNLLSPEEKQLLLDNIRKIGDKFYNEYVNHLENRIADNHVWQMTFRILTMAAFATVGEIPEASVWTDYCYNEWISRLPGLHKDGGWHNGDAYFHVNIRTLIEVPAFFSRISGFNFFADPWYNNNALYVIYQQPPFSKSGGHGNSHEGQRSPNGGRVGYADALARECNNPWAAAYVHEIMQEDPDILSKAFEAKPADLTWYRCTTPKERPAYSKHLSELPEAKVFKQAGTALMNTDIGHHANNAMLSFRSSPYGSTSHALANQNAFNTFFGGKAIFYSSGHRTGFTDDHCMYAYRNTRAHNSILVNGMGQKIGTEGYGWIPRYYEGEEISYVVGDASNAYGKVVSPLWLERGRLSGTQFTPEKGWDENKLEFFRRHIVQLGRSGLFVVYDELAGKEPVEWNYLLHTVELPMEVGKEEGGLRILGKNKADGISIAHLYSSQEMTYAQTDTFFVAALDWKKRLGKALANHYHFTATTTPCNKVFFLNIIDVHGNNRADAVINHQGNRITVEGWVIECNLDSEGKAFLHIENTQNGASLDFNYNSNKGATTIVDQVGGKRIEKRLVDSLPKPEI

Structure (SMILES) | tetrasaccharide digestion, 2-AB labelling, anion-exchange HPLC (BIexoHep) | digestion, anion-exchange HPLC at 232 nm (BFexoHep) | digestion, anion-exchange HPLC at 232 nm (BTexoHep) | digestion, anion-exchange HPLC at 232 nm (BCexoHep)
O=C(O)C1=C[C@H](O)[C@@H](OS(=O)(=O)O)[C@H](O[C@H]2[C@H](O)[C@@H](NS(=O)(=O)O)[C@@H](O[C@H]3[C@H](O)[C@@H](OS(=O)(=O)O)[C@H](O[C@H]4[C@H](O)[C@@H](NS(=O)(=O)O)C(O)O[C@@H]4COS(=O)(=O)O)O[C@H]3C(=O)O)O[C@@H]2COS(=O)(=O)O)O1 (some centres unmarked) [P4-8, ΔUA2S1-4GlcNS6S1-4IdoA2S1-4GlcNS6S] | this enzyme prefers to digest highly sulfated substrates | – | – | –
CO[C@H]1O[C@H](COS(=O)(=O)O)[C@@H](O[C@@H]2O[C@@H](C(=O)O)[C@@H](O[C@H]3O[C@H](COS(=O)(=O)O)[C@@H](O[C@@H]4O[C@H](C(=O)O)[C@@H](O[C@H]5O[C@H](COS(=O)(=O)O)[C@@H](O)[C@H](O)[C@H]5NS(=O)(=O)O)[C@H](O)[C@H]4O)[C@H](OS(=O)(=O)O)[C@H]3NS(=O)(=O)O)[C@H](O)[C@H]2OS(=O)(=O)O)[C@H](O)[C@H]1NS(=O)(=O)O [fondaparinux] | – | all these exoHepases can degrade the fondaparinux | all these exoHepases can degrade the fondaparinux | all these exoHepases can degrade the fondaparinux
O=C(O)C1=C[C@H](O)[C@@H](OS(=O)(=O)O)[C@H](O[C@H]2[C@H](O)[C@@H](NS(=O)(=O)O)[C@@H](O[C@H]3[C@H](O)[C@@H](O)[C@H](O[C@H]4[C@H](O)[C@@H](NS(=O)(=O)O)C(O)O[C@@H]4COS(=O)(=O)O)O[C@@H]3C(=O)O)O[C@@H]2COS(=O)(=O)O)O1 (some centres unmarked) [P4-7, ΔUA2S1-4GlcNS6S1-4GlcA1-4GlcNS6S] | all could be almost completely degraded | – | – | –
